Patent publication US20240415828A1, “TLR7 AGONIST AND COMBINATIONS FOR CANCER TREATMENT” (BIONTECH SE, priority 2021, published 2024)

Key:
[1] = in vivo, cited from earlier work
[2] = system: CT26 colon carcinoma cells; experiment: CT26 tumor model, BNT411 alone and with oxaliplatin (Example 4); type: in vivo, mouse; settings: BNT411 3 mg/kg i.v. eight times; oxaliplatin 5 mg/kg i.p. four times; group mean tumor volumes test vs control
Experimental: FIG. 5. Anti-tumoral efficacy of BNT411 alone and in combination with oxaliplatin in a tumor mouse model. Mice (n=12 or 13 per group) subcutaneously inoculated with 2.5×10^5 CT26 colon carcinoma cells were used as tumor mouse model. Oxaliplatin was administered intraperitoneally (i.p.) (5 mg/kg, four times with 4 to 5 days between injections). BNT411 was administered i.v. at a dose level of 3 mg/kg eight times with 2 to 5 days interval between injections and at least 2 days after oxaliplatin therapy. Anti-tumor efficacy was evaluated by group mean tumor volumes in test versus control groups (vehicle only) on days 33 and 42 (at least 50% of test and control animals alive). IFNα levels in plasma were analyzed 1 h after first BNT411 administration and gp70+ T-cell populations in blood were analyzed on days 34 and 41. (A) Dosing schedule. (B) Graph showing the tumor volumes vs. days after inoculation. Group mean tumor volumes (±SEM (standard error of the mean)) for all live animals are shown. Treatment groups included nine to ten mice. Additionally, tumor volumes of animals that were euthanized due to tumor load were carried forward for as long as they were larger than the group median tumor volume (last observation carried forward (LOCF) values). Curves were discontinued for groups with less than 50% animals alive. (C) Graph showing IFNα serum level 60 min after first injection for the 4 groups (control (vehicle); BNT411 alone; oxaliplatin alone; BNT411 and oxaliplatin). IFNα levels in control and test groups are shown by vertical bars (±SEM), Statistical significance between groups is indicated by horizontal lines. P-value summary: ****=p≤0.0001; ***=p≤0.001; **=p≤0.01, […].
Serum levels of IFNα were measured by sandwich ELISA (Pbl Assay Systems) according to manufacturer's instructions.
BALB/c mice were inoculated s.c. with 2.5×10^5−5×10^5 CT26-WT into the flank, respectively. Once tumors reached palpable sizes, mice were randomly divided into treatment and control groups. Tumor volume was measured unblinded with a caliper and calculated using the formula (a×b^2)/2 (a being the largest and b being the smallest diameter of the tumor). Tumor growth was documented as mean tumor size with standard error disregarding single distant outliers. Treatment was initiated after 7-10 d with tumors having reached an average volume of about 10 mm^3. […]
Oxaliplatin was administered intraperitoneally (i.p.) (5 mg/kg, four times with 4 to 5 days between injections). […] Anti-tumor efficacy was evaluated by group mean tumor volumes in test versus control groups (vehicle only) on study days 33 and 42, (at least 50% of test and control animals alive). IFNα levels in plasma were analyzed 1 h after first BNT411 administration and gp70+ T-cell populations in blood on study days 34 and 41.

In the case of `CCc1nc2c(N)nc3ccccc3c2n1CCCCNS(C)(=O)=O` [852A], the “tolerability of repeat-dose regimens” value [1] is listed as “not well tolerated”.
In the case of `CC(C)Cn1cnc2c(N)nc3ccccc3c21` [imiquimod], the “tolerability of repeated i.v. administrations at a systemically effective IFNa-inducing dose level” value ([1]; iv) is listed as “dose limiting adverse reactions”.
With `O=C1[O][Pt]2([NH][C@@H]3CCCC[C@H]3[NH]2)[O]C1=O` [oxaliplatin, reference compound] the “anti-tumor efficacy, T/C value” [2] was 50.7%.
